This is an account of results in US20220251095A1, “TRICYCLIC COMPOUND, PREPARATION METHOD THEREFOR AND USE THEREOF” (SHANGHAI JEMINCARE PHARMACEUTICALS CO., LTD., priority 2019, published 2022).

pIC50: −log10 of the molar value.

T1 sequence (P03951 388-625 limits assumed): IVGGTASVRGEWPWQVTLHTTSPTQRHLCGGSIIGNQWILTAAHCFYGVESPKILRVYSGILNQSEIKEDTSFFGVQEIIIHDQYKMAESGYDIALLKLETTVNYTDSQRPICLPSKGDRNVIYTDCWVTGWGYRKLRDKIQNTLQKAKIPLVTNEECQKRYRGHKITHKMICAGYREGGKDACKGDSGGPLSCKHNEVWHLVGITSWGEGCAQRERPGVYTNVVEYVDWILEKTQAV
T1 sequence (P03951 19-387 partner limits assumed): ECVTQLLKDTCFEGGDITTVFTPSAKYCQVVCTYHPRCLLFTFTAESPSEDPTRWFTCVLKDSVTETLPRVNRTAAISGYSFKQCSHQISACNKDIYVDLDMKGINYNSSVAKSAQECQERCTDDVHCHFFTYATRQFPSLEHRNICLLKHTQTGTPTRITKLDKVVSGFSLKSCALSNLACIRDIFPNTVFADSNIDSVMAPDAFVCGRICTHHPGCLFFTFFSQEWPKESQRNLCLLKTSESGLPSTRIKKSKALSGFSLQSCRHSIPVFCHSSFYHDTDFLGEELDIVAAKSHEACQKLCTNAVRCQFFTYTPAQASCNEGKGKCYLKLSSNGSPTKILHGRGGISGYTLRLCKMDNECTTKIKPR

One experiment concerns human plasma. The experiment can be described thus: Anticoagulant effect on human blood in vitro (APTT clotting time, CT2.0). The conditions noted are these: final concentration of compound corresponding to aPTT of the 2-fold blank control. As for the experimental part:
Activated partial thromboplastin time (APTT) measurement reagent was mixed with plasma and the reaction was carried out continuously resulting in a change in optical density up to the clotting point, and the clotting time (CT) was measured by optical turbidimetry using a semi-automatic coagulation analyzer. The in vitro anticoagulant activity of compounds on human blood was determined by detecting the clotting time of plasma treated with different concentrations of compounds, and the corresponding concentration of compounds prolonging clotting time was calculated.
Human plasma used in the experiment was purchased from HD Biosciences (Shanghai) Co., Ltd.; Activated partial thromboplastin time determination kit was purchased from Taizhou Zhongqin Shidi Biotechnology Co., Ltd., Item No. SS00220005.
(§1) The compounds were dissolved in 100% DMSO, 20 mM, and stored at room temperature in a nitrogen cabinet.
a. The NaCl reagent in the kit was incubated half an hour in advance, and the APTT reagent was balanced to room temperature.
b. The compound was continuously diluted at 14 concentration points using a Bravo liquid workstation with a 2-fold gradient.
c. 0.75 μL of the compound was added to the measuring cup, double-replicate wells; 50 μL of plasma was added and 50 μL of APTT reagent was added, the mixture was mixed well and put into coagulation analyzer for incubation at 37° C. for 3 minutes.
d. APTT assay was started, 50 μL of NaCl was added to start the reaction, and the clotting time was counted.
e. Control clotting time was measured using 100% DMSO instead of the compound, and the final concentration of DMSO was 0.5%.
Data were curve-fitted using Graphpad Prism to calculate CT2.0, the final concentration of compound corresponding to aPTT of the 2-fold blank control was calculated.
`Nc1ccc(-c2cnc([C@@H]3[C@H]4C[C@H]4c4cc(-c5cc(Cl)ccc5-n5cnnn5)cc(=O)n43)[nH]2)c(F)n1` [Embodiment 1] gave a CT2.0 of 1.72 µM.

Regarding `Nc1ccc(-c2[nH]c([C@@H]3[C@H]4C[C@H]4c4cc(-c5cc(Cl)ccc5-n5cnnn5)cc(=O)n43)nc2F)c(F)n1` [Embodiment 2], the CT2.0 turned out to be 0.55 µM.

In turn, `Nc1ccc(-c2[nH]c([C@@H]3[C@H]4C[C@H]4c4nc(-c5cc(Cl)ccc5-n5cnnn5)cc(=O)n43)nc2F)c(F)n1` [Embodiment 14] came in with a CT2.0 of 0.55 µM.

In turn, `Nc1n[nH]c2cc(-c3cnc([C@@H]4[C@H]5C[C@H]5c5cc(-c6cc(Cl)ccc6-n6cnnn6)cc(=O)n54)[nH]3)ccc12` [Embodiment 15] registered a CT2.0 of 0.47 µM.

Regarding `O=C1CCc2cc(-c3cnc([C@@H]4[C@H]5C[C@H]5c5cc(-c6cc(Cl)ccc6-n6cnnn6)cc(=O)n54)[nH]3)ccc2N1` [Embodiment 16], the CT2.0 was determined as 0.63 µM.

`O=C1CCc2cc(-c3[nH]c([C@@H]4[C@H]5C[C@H]5c5cc(-c6cc(Cl)ccc6-n6cnnn6)cc(=O)n54)nc3F)ccc2N1` [Embodiment 17] had a CT2.0 of 0.54 µM.

`O=C1COc2cc(-c3cnc([C@@H]4[C@H]5C[C@H]5c5cc(-c6cc(Cl)ccc6-n6cnnn6)cc(=O)n54)[nH]3)ccc2N1` [Embodiment 20] registered a CT2.0 of 0.88 µM.

Regarding `Nc1ccc(-c2cnc([C@@H]3[C@H]4C[C@H]4c4cc(-c5cc(Cl)ccc5-n5cnnn5)cc(=O)n43)[nH]2)c(F)c1F` [Embodiment 24], the CT2.0 turned out to be 0.90 µM.

`Nc1noc2cc(-c3cnc([C@@H]4[C@H]5C[C@H]5c5cc(-c6cc(Cl)ccc6-n6cnnn6)cc(=O)n54)[nH]3)ccc12` [Embodiment 28] had a CT2.0 of 0.07 µM.

Consider `Nc1noc2cc(-c3[nH]c([C@@H]4[C@H]5C[C@H]5c5cc(-c6cc(Cl)ccc6-n6cnnn6)cc(=O)n54)nc3F)ccc12` [Embodiment 29], for which the CT2.0 amounted to 0.37 µM.

`O=C1CCc2cc(-c3[nH]c([C@@H]4[C@H]5C[C@H]5c5cc(-c6cc(Cl)ccc6-n6cc(Cl)nn6)cc(=O)n54)nc3F)ccc2N1` [Embodiment 31]: the CT2.0 was found to be 2.38 µM.

Take `Nc1n[nH]c2cc(-c3cnc([C@@H]4[C@H]5C[C@H]5c5cc(-c6cc(Cl)ccc6-n6cc(Cl)nn6)cc(=O)n54)[nH]3)ccc12` [Embodiment 32]: the CT2.0 is 0.26 µM.

`Nc1n[nH]c2cc(-c3[nH]c([C@@H]4[C@H]5C[C@H]5c5cc(-c6cc(Cl)ccc6-n6cc(Cl)nn6)cc(=O)n54)nc3F)ccc12` [Embodiment 33]: the CT2.0 stood at 0.69 µM.

Take `Cn1nc(N)c2ccc(-c3cnc([C@@H]4[C@H]5C[C@H]5c5cc(-c6cc(Cl)ccc6-n6cnnn6)cc(=O)n54)[nH]3)cc21` [Embodiment 34]: the CT2.0 was 0.58 µM.

`O=c1cc(-c2cc(Cl)ccc2-n2cnnn2)cc2n1[C@H](c1ncc(-c3ccc4c(c3)CCc3cn[nH]c3-4)[nH]1)[C@H]1C[C@@H]21` [Embodiment 42] displayed a CT2.0 of 1.08 µM.

A further experiment addresses T1, coagulation factor XIa protease (FXIa) (Homo sapiens, UniProt P03951).
T1 construct: purchased Abcam ab62411
The experiment can be described thus: Inhibition of coagulation factor XIa (FXIa), chromogenic substrate, absorbance at 405. The settings on record: FXIa 0.05 μg/mL, substrate 2.5 mM, 37° C. 15 minutes. It counts as biochemical. As for the experimental part: Coagulation factor XIa protease (FXIa) decomposed the specific substrate to produce yellow p-nitroaniline (pNA), pNA had strong absorption at 405 nm. The inhibitory activity of the compounds on coagulation factor XIa was determined by assaying the absorbance of the compounds at […].
The coagulation factor XIa protease used in the experiment was purchased from Abcam Company, Item No. ab62411; the coagulation factor XIa-specific substrate was purchased from HYPHEN BioMed, Item No. Biophen cs-21 (66); tris-HCl was purchased from Invitrogen, Item No. 15567-027; NaCl was purchased from ABCONE, Item No. S39168; Twain 20 was purchased from Amersco, Item No. 0777-1L.
as §1
a. 20 mM of the tested compound was diluted to 2 mM using 100% DMSO, and the reference compound was diluted to 0.4 mM; the compound was continuously diluted with a 3-fold gradient at 10 concentration points using a Bravo liquid workstation.
b. The ECHO liquid workstation was used to transfer 10 nL of compound to the corresponding 384-well experimental plate with double replicate wells; the final concentrations of compound reactions were 1000, 333.3, 111.1, 37.0, 12.3, 4.1, 1.37, 0.46, 0.15, and 0.05 nM. The final concentrations of reference compounds were 200, 66.7, 22.2, 7.4, 2.47, 0.82, 0.27, 0.09, 0.03, 0.01 nM.
c. 10 nL DMSO and 10 nL 0.4 mM reference compounds were transferred to high signal control pores and low signal control pores respectively.
d. 0.1 μg/mL FXIa enzyme solution was prepared with buffer solution, and 10 μL enzyme solution was added to 384-well experimental plate, 5 mM substrate solution was prepared using buffer solution, and […] substrate solution was added to a 384-well experimental plate. The final concentration of FXIa was 0.05 μg/mL and the final concentration of the substrate was 2.5 mM.
e. The 384-hole experimental plate was centrifuged and incubated at 37° C. for 15 minutes.
f. The absorbance was measured at 405 nm using EnVision.
In turn, `Nc1ccc(-c2cnc([C@@H]3[C@H]4C[C@H]4c4cc(-c5cc(Cl)ccc5-n5cnnn5)cc(=O)n43)[nH]2)c(F)n1` [Embodiment 1] had a pIC50 of 8.19.

For `Nc1ccc(-c2[nH]c([C@@H]3[C@H]4C[C@H]4c4cc(-c5cc(Cl)ccc5-n5cnnn5)cc(=O)n43)nc2F)c(F)n1` [Embodiment 2], the pIC50 was 8.17. This pIC50 and that of the compound before are within 0.2 log units of each other.

The compound `Nc1ccc(-c2[nH]c([C@@H]3[C@H]4C[C@H]4c4nc(-c5cc(Cl)ccc5-n5cnnn5)cc(=O)n43)nc2F)c(F)n1` [Embodiment 14] had a negative logarithm of the IC50 (pIC50) of 8.55.

The compound `Nc1n[nH]c2cc(-c3cnc([C@@H]4[C@H]5C[C@H]5c5cc(-c6cc(Cl)ccc6-n6cnnn6)cc(=O)n54)[nH]3)ccc12` [Embodiment 15] showed a pIC50 of 9.09.

`O=C1CCc2cc(-c3cnc([C@@H]4[C@H]5C[C@H]5c5cc(-c6cc(Cl)ccc6-n6cnnn6)cc(=O)n54)[nH]3)ccc2N1` [Embodiment 16] had a pIC50 of 8.32.

Regarding `O=C1CCc2cc(-c3[nH]c([C@@H]4[C@H]5C[C@H]5c5cc(-c6cc(Cl)ccc6-n6cnnn6)cc(=O)n54)nc3F)ccc2N1` [Embodiment 17], the pIC50 was 9.08.

`O=C1COc2cc(-c3cnc([C@@H]4[C@H]5C[C@H]5c5cc(-c6cc(Cl)ccc6-n6cnnn6)cc(=O)n54)[nH]3)ccc2N1` [Embodiment 20] showed a pIC50 of 8.20.

As to `Nc1ccc(-c2cnc([C@@H]3[C@H]4C[C@H]4c4cc(-c5cc(Cl)ccc5-n5cnnn5)cc(=O)n43)[nH]2)c(F)c1F` [Embodiment 24], the pIC50 was 8.06.

Consider `Nc1noc2cc(-c3cnc([C@@H]4[C@H]5C[C@H]5c5cc(-c6cc(Cl)ccc6-n6cnnn6)cc(=O)n54)[nH]3)ccc12` [Embodiment 28], for which the pIC50 was 9.09.

`Nc1noc2cc(-c3[nH]c([C@@H]4[C@H]5C[C@H]5c5cc(-c6cc(Cl)ccc6-n6cnnn6)cc(=O)n54)nc3F)ccc12` [Embodiment 29]: the pIC50 is 9.30.

For `O=C1CCc2cc(-c3[nH]c([C@@H]4[C@H]5C[C@H]5c5cc(-c6cc(Cl)ccc6-n6cc(Cl)nn6)cc(=O)n54)nc3F)ccc2N1` [Embodiment 31], the pIC50 is 8.33. Against the preceding compound, the pIC50 is 0.97 log units lower.

As to `Nc1n[nH]c2cc(-c3cnc([C@@H]4[C@H]5C[C@H]5c5cc(-c6cc(Cl)ccc6-n6cc(Cl)nn6)cc(=O)n54)[nH]3)ccc12` [Embodiment 32], the negative-log IC50 (pIC50) was 8.57.

In the case of `Nc1n[nH]c2cc(-c3[nH]c([C@@H]4[C@H]5C[C@H]5c5cc(-c6cc(Cl)ccc6-n6cc(Cl)nn6)cc(=O)n54)nc3F)ccc12` [Embodiment 33], the negative-log IC50 (pIC50) was 9.07.

`Cn1nc(N)c2ccc(-c3cnc([C@@H]4[C@H]5C[C@H]5c5cc(-c6cc(Cl)ccc6-n6cnnn6)cc(=O)n54)[nH]3)cc21` [Embodiment 34] had a negative logarithm of the IC50 (pIC50) of 7.93.

`O=c1cc(-c2cc(Cl)ccc2-n2cnnn2)cc2n1[C@H](c1ncc(-c3ccc4c(c3)CCc3cn[nH]c3-4)[nH]1)[C@H]1C[C@@H]21` [Embodiment 42]: the pIC50 was 8.06. This pIC50 and that of the compound before are within 0.2 log units of each other.
